Results reported in the NIST ThermoML archive (doi:10.1016/j.fluid.2013.11.026).

Key:
[1] = xn = mol fraction of the nth substance listed; settings: 101 kPa, Liquid, Vibrating tube method
[2] = 101.33 kPa, Liquid, Vibrating tube method
[3] = refractive index (Na D-line) (dimensionless); settings: 101.33 kPa, Liquid, Standard Abbe refractometry
[4] = excess molar enthalpy (molar enthalpy of mixing); xn = mol fraction of the nth substance listed; settings: 101 kPa, Liquid, Calvet calorimetry

CCCCC [pentane] + COC=O
Settings | mass density [kg/m3]
[1], 291.15 K, x2 = 0 | 627.86

CCCOC=O [propyl methanoate]
Settings | mass density, [2] [kg/m3] | refractive index, [3]
291.15 K | 907.97 | 1.3778
298.15 K | 899.86 | 1.3752

CCOC=O [ethyl methanoate] + CCCCC
Settings | excess molar enthalpy [kcal/mol] | mass density [kg/m3]
[1], 291.15 K, x1 = 0.054 | – | 637.14
[1], 291.15 K, x1 = 0.063 | – | 638.38
[1], 291.15 K, x1 = 0.118 | – | 649.24
[1], 291.15 K, x1 = 0.161 | – | 658.03
[1], 291.15 K, x1 = 0.208 | – | 668.06
[1], 291.15 K, x1 = 0.305 | – | 689.98
[1], 291.15 K, x1 = 0.35 | – | 701.21
[1], 291.15 K, x1 = 0.405 | – | 715.14
[1], 291.15 K, x1 = 0.499 | – | 741.07
[1], 291.15 K, x1 = 0.595 | – | 769.91
[1], 291.15 K, x1 = 0.656 | – | 789.59
[1], 291.15 K, x1 = 0.751 | – | 822.65
[1], 291.15 K, x1 = 0.794 | – | 838.31
[1], 291.15 K, x1 = 0.85 | – | 859.54
[1], 291.15 K, x1 = 0.895 | – | 877.8
[1], 291.15 K, x1 = 0.941 | – | 896.94
[1], 291.15 K, x1 = 1 | – | 923.4
[1], 298.15 K, x1 = 0.058 | – | 631.15
[1], 298.15 K, x1 = 0.101 | – | 639.36
[1], 298.15 K, x1 = 0.104 | – | 639.54
[1], 298.15 K, x1 = 0.196 | – | 658.7
[1], 298.15 K, x1 = 0.252 | – | 670.7
[1], 298.15 K, x1 = 0.304 | – | 682.9
[1], 298.15 K, x1 = 0.405 | – | 708.3
[1], 298.15 K, x1 = 0.496 | – | 733.3
[1], 298.15 K, x1 = 0.609 | – | 766.9
[1], 298.15 K, x1 = 0.702 | – | 797.1
[1], 298.15 K, x1 = 0.801 | – | 832.2
[1], 298.15 K, x1 = 0.858 | – | 854.37
[1], 298.15 K, x1 = 0.909 | – | 875.28
[1], 298.15 K, x1 = 0.953 | – | 893.59
[1], 298.15 K, x1 = 1 | – | 914.35
[4], 291.15 K, x1 = 0.0907 | 0.109 | –
[4], 291.15 K, x1 = 0.1625 | 0.1671 | –
[4], 291.15 K, x1 = 0.2451 | 0.223 | –
[4], 291.15 K, x1 = 0.3245 | 0.2663 | –
[4], 291.15 K, x1 = 0.3983 | 0.2937 | –
[4], 291.15 K, x1 = 0.4484 | 0.3043 | –
[4], 291.15 K, x1 = 0.4961 | 0.3093 | –
[4], 291.15 K, x1 = 0.536 | 0.3057 | –
[4], 291.15 K, x1 = 0.5703 | 0.3 | –
[4], 291.15 K, x1 = 0.605 | 0.2945 | –
[4], 291.15 K, x1 = 0.6447 | 0.2818 | –
[4], 291.15 K, x1 = 0.6893 | 0.2653 | –
[4], 291.15 K, x1 = 0.7332 | 0.2445 | –
[4], 291.15 K, x1 = 0.7743 | 0.2182 | –
[4], 291.15 K, x1 = 0.8244 | 0.1855 | –
[4], 291.15 K, x1 = 0.874 | 0.1465 | –
[4], 291.15 K, x1 = 0.9259 | 0.0968 | –
[4], 291.15 K, x1 = 0.9621 | 0.0454 | –
[4], 298.15 K, x1 = 0.0714 | 0.106 | –
[4], 298.15 K, x1 = 0.1517 | 0.1922 | –
[4], 298.15 K, x1 = 0.2221 | 0.2512 | –
[4], 298.15 K, x1 = 0.3085 | 0.299 | –
[4], 298.15 K, x1 = 0.3849 | 0.3186 | –
[4], 298.15 K, x1 = 0.445 | 0.3217 | –
[4], 298.15 K, x1 = 0.4999 | 0.3236 | –
[4], 298.15 K, x1 = 0.5411 | 0.32 | –
[4], 298.15 K, x1 = 0.5726 | 0.3143 | –
[4], 298.15 K, x1 = 0.6159 | 0.3069 | –
[4], 298.15 K, x1 = 0.6668 | 0.2935 | –
[4], 298.15 K, x1 = 0.7209 | 0.2717 | –
[4], 298.15 K, x1 = 0.7702 | 0.2428 | –
[4], 298.15 K, x1 = 0.8273 | 0.2065 | –
[4], 298.15 K, x1 = 0.8813 | 0.16 | –
[4], 298.15 K, x1 = 0.9227 | 0.104 | –
[4], 298.15 K, x1 = 0.9662 | 0.049 | –

CCCCC [pentane] + CCCCOC=O
[1], x2 = 0
Settings | mass density [kg/m3]
291.15 K | 627.86
298.15 K | 620.89

CCCCOC=O [butyl methanoate]
Settings | mass density, [2] [kg/m3] | refractive index, [3]
291.15 K | 895.86 | 1.3904
298.15 K | 888.47 | 1.3872

CCCOC=O [propyl methanoate] + CCCCC
Settings | excess molar enthalpy, [4] [kcal/mol] | mass density, [1] [kg/m3]
291.15 K, x1 = 0.057 | – | 639.86
291.15 K, x1 = 0.0666 | 0.0844 | –
291.15 K, x1 = 0.117 | – | 653.61
291.15 K, x1 = 0.1411 | 0.141 | –
291.15 K, x1 = 0.166 | – | 665.38
291.15 K, x1 = 0.2072 | 0.1824 | –
291.15 K, x1 = 0.26 | – | 688.38
291.15 K, x1 = 0.2696 | 0.2106 | –
291.15 K, x1 = 0.308 | – | 700.63
291.15 K, x1 = 0.3154 | 0.2273 | –
291.15 K, x1 = 0.3689 | 0.2395 | –
291.15 K, x1 = 0.4172 | 0.2433 | –
291.15 K, x1 = 0.448 | – | 737.83
291.15 K, x1 = 0.46 | 0.2431 | –
291.15 K, x1 = 0.4953 | 0.2402 | –
291.15 K, x1 = 0.5199 | 0.238 | –
291.15 K, x1 = 0.537 | – | 763.24
291.15 K, x1 = 0.5543 | 0.2321 | –
291.15 K, x1 = 0.5955 | 0.2218 | –
291.15 K, x1 = 0.631 | 0.2122 | –
291.15 K, x1 = 0.651 | – | 796.41
291.15 K, x1 = 0.678 | 0.1974 | –
291.15 K, x1 = 0.703 | – | 812.04
291.15 K, x1 = 0.7184 | 0.1807 | –
291.15 K, x1 = 0.7665 | 0.1597 | –
291.15 K, x1 = 0.819 | 0.1322 | 848.4
291.15 K, x1 = 0.847 | – | 857.3
291.15 K, x1 = 0.879 | 0.0949 | –
291.15 K, x1 = 0.938 | – | 886.86
291.15 K, x1 = 0.9403 | 0.0528 | –
291.15 K, x1 = 1 | – | 907.97
298.15 K, x1 = 0.042 | 0.0468 | –
298.15 K, x1 = 0.0505 | – | 631.54
298.15 K, x1 = 0.0794 | – | 638.09
298.15 K, x1 = 0.1081 | 0.114 | –
298.15 K, x1 = 0.1375 | – | 651.43
298.15 K, x1 = 0.1456 | 0.158 | –
298.15 K, x1 = 0.2012 | – | 666.5
298.15 K, x1 = 0.2109 | 0.2017 | –
298.15 K, x1 = 0.2525 | – | 679.23
298.15 K, x1 = 0.2706 | 0.2294 | –
298.15 K, x1 = 0.3178 | – | 695.79
298.15 K, x1 = 0.3317 | 0.2495 | –
298.15 K, x1 = 0.3733 | – | 710.12
298.15 K, x1 = 0.3889 | 0.2596 | –
298.15 K, x1 = 0.4303 | – | 725.46
298.15 K, x1 = 0.4431 | 0.2631 | –
298.15 K, x1 = 0.4798 | – | 739.19
298.15 K, x1 = 0.4882 | – | 741.75
298.15 K, x1 = 0.4905 | 0.2627 | –
298.15 K, x1 = 0.5353 | 0.2584 | –
298.15 K, x1 = 0.5467 | – | 758.38
298.15 K, x1 = 0.5637 | 0.2548 | –
298.15 K, x1 = 0.6019 | – | 774.28
298.15 K, x1 = 0.6149 | 0.245 | –
298.15 K, x1 = 0.67 | 0.2326 | –
298.15 K, x1 = 0.6778 | – | 796.75
298.15 K, x1 = 0.7271 | 0.2125 | –
298.15 K, x1 = 0.7597 | – | 822.01
298.15 K, x1 = 0.7888 | 0.1809 | –
298.15 K, x1 = 0.8079 | – | 837.19
298.15 K, x1 = 0.8503 | – | 850.78
298.15 K, x1 = 0.8511 | 0.141 | –
298.15 K, x1 = 0.9096 | 0.0927 | –
298.15 K, x1 = 0.9251 | – | 874.84
298.15 K, x1 = 0.9655 | 0.0442 | –
298.15 K, x1 = 1 | – | 899.86
